Results published in US20140329863A1 (priority 2011, published 2014).
“Also recorded” adds a separate entry of the source.

Key:
[1] = Hepatic microsome stability, mouse; format: in vitro ADME; details: mouse liver microsomes
Procedure: (§1) Hepatic microsomal stability assays were performed in two stages. In the first set of experiments, aliquots of the DMSO solute stocks were diluted into ACN and then into assay buffer (PBS, pH 7.4, ±0.05% PS80). Final experimental solute concentrations were 1 μM (0.6% ACN, 0.01% DMSO). Commercially available mouse, rat, or human hepatic microsomes (˜0.5 mg/ml final concentration), and NADPH (1 mM) or PBS were added. The resulting mixture was incubated at 37° C., and aliquots removed at 0, 1, 10, 30 and 60 min, then quenched with ACN containing 2 μM carbamazepine (internal standard). […] Duplicate incubations were run for each time-point. The percentage of solute remaining at the end of the incubation was used to determine solute half-life.
(§2) These were diluted 500-fold into 1 mL of microsomal incubation mixture to yield a final concentration of 1 μM. The incubation mixture was composed of 100 mM phosphate buffer, pH 7.4, and NADPH regenerating system (BD Biosciences NADPH Regenerating System Solutions A & B). This mixture was preincubated at 37° C. for 5 min in an Eppendorf Thermo mixer, and the reaction initiated by addition of 0.5 mg (25 μl of a 20 mg/mL solution) of liver microsomes. Aliquots (100 μl) were withdrawn at 0, 5, 15, 30, and 60 min, and added to 100 μl ACN containing internal standard. […] The percentage of solute remaining at the end of the incubation was used to determine species-specific values of scaled intrinsic clearance, hepatic clearance, and predicted hepatic extraction based upon the calculations below {Obach, 1999 #9097}.
(§3) for which mg microsomal protein/gm liver was 45 for all species, and gm liver/kg body weight were 32 for dog, 88 for mouse, 40 for rat and 25 for human.
(§4) Clh=(Q*Clint,scaled)/(Q+Clint,scaled)
(§5) for which Q was hepatic blood flow; values of 90 ml/min/kg for mouse, 66 ml/min/kg for rat, and 21 ml/min/kg for human were used.
(§6) for which ER estimates the amount of compound cleared during a single pass through the liver (Low ER<0.3, moderate ER 0.3-0.7, high ER>0.7).

[2] = Hepatic microsome stability, human; format: in vitro ADME; details: for metabolism in HLM incubations: pooled human liver microsomes, 60 min, with or without CYP inhibitors
Procedure: as §1, §2, §3, §4, §5, §6

[3] = Hepatic microsomal stability, rat; details: […]; for half-life at 1 μM: Sprague-Dawley, rat, pH 7.4
[4] = Hepatic microsomal stability, mouse; details: for half-life at 1 μM: CD-1, mouse, pH 7.4
[5] = Hepatic microsomal stability, human; details: for half-life at 1 μM: human, pH 7.4
[6] = Single-dose pharmacokinetics in FVB mice (oral gavage, IV); details: for AUClast: PO 40 mg/kg; for AUClast / half-life: female FVB mice; for Kp / Cmax / Tmax / AUC(0-t) / half-life / bioavailability: female, FVB, mouse; for Brain exposure (AUClast) ranking: single oral dose, FVB mice
[7] = plasma, iv, 1 mg/kg, t1/2, IV 1 mg/kg
[8] = plasma, po, 40 mg/kg, t1/2, PO 40 mg/kg

SMILES	metabolism in HLM incubations ([2]; 1 μM)	half-life at 1 μM [3] [min]	% remaining after a 60-min incubation, Rat [3] [%]	half-life at 1 μM ([4]; liver microsomes) [min]	half-life at 1 μM ([4]; mouse liver microsomes) [min]	half-life at 1 μM ([4]; female, liver microsomes) [min]	half-life at 1 μM ([4]; male, liver microsomes) [min]	% remaining after a 60-min incubation, Mouse ([4]; mouse liver microsomes) [%]	half-life at 1 μM ([5]; both, liver microsomes) [min]	% remaining after a 60-min incubation, Human ([5]; human liver microsomes) [%]	half-life at 1 μM ([5]; human liver microsomes) [min]	half-life at 1 μM ([5]; liver microsomes) [min]	AUClast ([6]; brain) [ng·h/g]	Kp ([6]; brain and plasma, po, 10 mg/kg)	Cmax ([6]; brain, po, 40 mg/kg) [ng/g]	Tmax ([6]; brain, po, 40 mg/kg) [min]	Kp ([6]; brain/plasma, po, 40 mg/kg)	AUC(0-t) ([6]; plasma, iv, 1 mg/kg) [ng·h/mL]	Cmax ([6]; plasma, iv, 1 mg/kg) [ng/mL]	Tmax ([6]; plasma, iv, 1 mg/kg) [min]	further results
Cc1cccc(Nc2nc(-c3ccc(-c4ccccc4)cc3)cs2)n1 [IND24, (4-Biphenyl-4-yl-thiazol-2-yl)-(6-methyl-pyridin-2-yl)-amine]	very little metabolism	> 60	90	> 60	> 60	290	190	89	1400	105	> 60	> 60	9998 ± 417	2.6	840 ± 252	240	2.61	953 ± 374	856 ± 908	4.98	metabolic stability (in words) [1]: stable; also recorded: excellent stability; half-life at 1 μM ([1]; pH 7.4, 1 μM): > 60 min; metabolic stability (in words) ([2]; human liver microsomes): stable; also recorded: excellent stability; half-life at 1 μM ([2]; pH 7.4, human liver microsomes, 1 μM): > 60 min; half-life ([6]; plasma, iv, 1 mg/kg, Half-life, 1 mg/kg IV): 120 min; half-life [6, 7]: 129 min; bioavailability ([6]; plasma, po, 10 mg/kg): 40%; AUC(0-t) ([6]; plasma, po, 40 mg/kg): 3830 ± 450 ng·h/mL; Cmax ([6]; plasma, po, 40 mg/kg): 569 ± 38.1 ng/mL; Tmax ([6]; plasma, po, 40 mg/kg): 120 min; bioavailability ([6]; plasma, po, 40 mg/kg): 40.2%; half-life [6, 8]: 279 min; Brain exposure (AUClast) ranking ([6]; brain): highest AUC values in brain
Cc1ccnc(Nc2nc(-c3ccc(-c4ccccn4)s3)cs2)c1 [IND81, (4-Methyl-pyridin-2-yl)-[4-(5-pyridin-2-yl-thiophen-2-yl)-thiazol-2-yl]-amine]	relatively high turnover	58	48	19	19	26	23	10	40	48	52	52	1592 ± 794	5.5	568 ± 186	30	5.53	106 ± 12.4	183 ± 96.6	4.98	half-life [6, 7]: 70.2 min; bioavailability ([6]; plasma, po, 10 mg/kg): 25 to 27%; AUC(0-t) ([6]; plasma, po, 40 mg/kg): 288 ± 136 ng·h/mL; Cmax ([6]; plasma, po, 40 mg/kg): 152 ± 10.6 ng/mL; Tmax ([6]; plasma, po, 40 mg/kg): 30 min; bioavailability ([6]; plasma, po, 40 mg/kg): 27.2%; half-life [6, 8]: 58.2 min; Brain exposure (AUClast) ranking ([6]; brain): highest AUC values in brain
